“And” between values parts separate entries of the source, which are not always exact repeats. Equal values may be shown once.
System: JNJ-2901- and JNJ-4052-resistant M. tuberculosis ΔcydAB strains (QcrA/QcrB mutants)
Assay type: cell-based, Mycobacterium tuberculosis

NNC(=O)c1ccncc1 [Isoniazid, isoniazid]
MIC50 fold change from parental strain: 1 fold and 0.5 fold
